Results published in patent US9108983B2, “Pyrrole compounds, a process for their preparation and pharmaceutical compositions containing them” (LES LABORATOIRES SERVIER, priority 2013, dated 2015).
Structures can show the parent of a compound that is named as a salt. Where two headings read alike, the source gives them in different places.

Key:
Bcl-2 protein = Bcl-2 protein (histag-Bcl-2, UniProtKB P10415) (Homo sapiens (Human), UniProt P10415); assay: Inhibition of Bcl-2 by the fluorescence polarisation technique; type: binding; conditions: incubation for 2 hours
Bcl-2 protein, sequence (P10415 whole entry): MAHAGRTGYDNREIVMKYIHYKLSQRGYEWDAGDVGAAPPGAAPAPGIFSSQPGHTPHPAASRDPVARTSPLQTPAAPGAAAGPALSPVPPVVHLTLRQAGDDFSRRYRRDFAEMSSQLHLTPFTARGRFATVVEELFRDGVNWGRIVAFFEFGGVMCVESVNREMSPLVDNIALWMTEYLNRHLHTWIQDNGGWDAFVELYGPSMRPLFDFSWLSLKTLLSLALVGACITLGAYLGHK
Outline: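 In pH 7.4 buffer (Hepes 10 mM, NaCl 150 mM, Tween20 0.05%), test compounds at increasing concentrations competed with a fluorescein peptide (1.00×10^−8 M final) for histag-Bcl-2 (2.50×10^−8 M final). Readout was fluorescence polarisation after a 2 h incubation.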

[1] = tested on: RS4;11 leukaemia tumour line; assay: In vitro cytotoxicity (Microculture Tetrazolium Assay); type: cell-based; conditions: Homo sapiens, RS4;11 cells, exposed for 48 hours, cell viability, read-out: IC50 (nM) MTT RS4;11
Method: The cytotoxicity studies were carried out on the RS4;11 leukaemia tumour line.
The cells are distributed onto microplates and exposed to the test compounds for 48 hours.
The cell viability is then quantified by a colorimetric assay, the Microculture Tetrazolium Assay (Cancer Res., 1987, 47, 939-942).

SMILES	IC50 (Bcl-2 protein; read-out: IC50 (nM) Bcl-2 FP)	IC50 ([1]; RS4-11, 48 h)	IC50 (Bcl-2 protein; IC50 (nM) Bcl-2 FP)	IC50 [1]
COc1cc(C(=O)N2Cc3ccccc3C[C@H]2CN2CCOCC2)c(-c2cc(C(=O)N(c3ccc(O)cc3)c3cc(C#N)ccn3)c(C)n2C)cc1F [Example 435, N-(4-Cyanopyridin-2-yl)-5-(5-fluoro-4-methoxy-2-{[(3S)-3-(morpholin-4-ylmethyl)-3,4-dihydroisoquinolin-2(1H)-yl]carbonyl}phenyl)-N-(4-hydroxyphenyl)-1,2-dimethyl-1H-pyrrole-3-carboxamide hydrochloride]	14.9 nM	441 nM		
Cc1c(C(=O)N(C)c2ccc(O)cc2)cc(-c2cc(CCNC(=O)Oc3ccccc3)ccc2C(=O)N2Cc3ccccc3C[C@H]2C)n1C [Example 45, Phenyl[2-(3-{4-[(4-hydroxyphenyl)(methyl)carbamoyl]-1,5-dimethyl-1H-pyrrol-2-yl}-4-{[(3R)-3-methyl-3,4-dihydroisoquinolin-2(1H)-yl]carbonyl}-phenyl)ethyl]carbamate]			38.9 nM	403 nM
Cc1c(C(=O)N(c2ccc(O)cc2)c2cc(C#N)n(CCN3CCOCC3)c2C)cc(-c2cc(Cl)ccc2C(=O)N2Cc3ccccc3C[C@H]2C)n1C [Example 455, 5-(5-Chloro-2-{[(3R)-3-methyl-3,4-dihydroisoquinolin-2(1H)-yl]-carbonyl}phenyl)-N-{5-cyano-2-methyl-1-[2-(morpholin-4-yl)ethyl]-1H-pyrrol-3-yl}-N-(4-hydroxyphenyl)-1,2-dimethyl-1H-pyrrole-3-carboxamide hydrochloride]	1.9 nM	11.8 nM		
CC1=C(C(=O)N(c2ccccc2)c2ccc(O)cc2)CC(c2cc(Cl)ccc2C(=O)N2Cc3ccccc3C[C@H]2COCCN2CCOCC2)N1C (stereo partly drawn) [Example 29, 5-(5-Chloro-2-{[(3S)-3-{[2-(morpholin-4-yl)ethoxy]methyl}-3,4-dihydroisoquinolin-2(1H)-yl]carbonyl}phenyl)-N-(4-hydroxyphenyl)-1,2-dimethyl-N-phenyl-4H-pyrrole-3-carboxamide hydrochloride]	6.6 nM	47.5 nM		
Cc1c(C(=O)N(c2ccc(O)cc2)c2csc(C#N)c2)cc(-c2cc(Cl)ccc2C(=O)N2Cc3ccccc3C[C@H]2CN2CCOCC2)n1C [Example 442, 5-(5-Chloro-2-{[(3S)-3-(morpholin-4-ylmethyl)-3,4-dihydroisoquinolin-2(1H)-yl]carbonyl}phenyl)-N-(5-cyanothiophen-3-yl)-N-(4-hydroxyphenyl)-1,2-dimethyl-1H-pyrrole-3-carboxamide hydrochloride]	3 nM	42.8 nM		

The remaining molecules from weak to strong by IC50 (Bcl-2 protein; read-out: IC50 (nM) Bcl-2 FP), led by results:

IC50 (Bcl-2 protein; read-out: IC50 (nM) Bcl-2 FP)	SMILES	IC50 ([1]; RS4-11, 48 h)	IC50 (Bcl-2 protein; IC50 (nM) Bcl-2 FP)	IC50 [1]
14.7 nM	Cc1c(C(=O)N(c2ccc(O)cc2)c2cc3ccn(C)c3cn2)cc(-c2cc(Cl)ccc2C(=O)N2Cc3ccccc3C[C@H]2CN2CCOCC2)n1C [Example 389, 5-(5-Chloro-2-{[(3S)-3-(morpholin-4-ylmethyl)-3,4-dihydroisoquinolin-2(1H)-yl]carbonyl}phenyl)-N-(4-hydroxyphenyl)-1,2-dimethyl-N-(1-methyl-1H-pyrrolo[2,3-c]pyridin-5-yl)-1H-pyrrole-3-carboxamide hydrochloride]	208 nM		
13.3 nM	Cc1cc(N(C(=O)c2cc(-c3cc(Cl)ccc3C(=O)N3Cc4ccccc4C[C@H]3CN3CCOCC3)n(C)c2C)c2ccc(O)cc2)no1 [Example 462, 5-(5-Chloro-2-{[(3S)-3-(morpholin-4-ylmethyl)-3,4-dihydroisoquinolin-2(1H)-yl]carbonyl}phenyl)-N-(4-hydroxyphenyl)-1,2-dimethyl-N-(5-methyl-1,2-oxazol-3-yl)-1H-pyrrole-3-carboxamide]	368 nM		
5.3 nM	Cc1c(C(=O)N(c2ccc(O)cc2)c2cnc3c(ccn3C)c2)cc(-c2cc3c(cc2C(=O)N2Cc4ccccc4C[C@H]2CN2CCN(C)CC2)OCO3)n1C [Example 69, N-(4-Hydroxyphenyl)-1,2-dimethyl-5-(6-{[(3S)-3-[(4-methylpiperazin-1-yl)methyl]-3,4-dihydroisoquinolin-2(1H)-yl]carbonyl}-1,3-benzodioxol-5-yl)-N-(1-methyl-1H-pyrrolo[2,3-b]pyridin-5-yl)-1H-pyrrole-3-carboxamide hydrochloride]	3.68 nM		
